# Legend:
# [1] = In vitro 1O2-scavenging capacity; type: biochemical; details: amino acid 80 μM; normalized to Cys; Figure S18
# [2] = tested on: •OH in chloroplasts of N. benthamiana leaf discs; assay: In vivo •OH level in chloroplasts of leaf discs; type: cell-based, Nicotiana benthamiana; details: MV 0.35 μM, HPF 5 μM; MV(+) vs MV(−); n = 8; Figure S22
# [3] = tested on: ^1O2 in chloroplasts of N. benthamiana leaf discs; assay: In vivo 1O2 level in chloroplasts of leaf discs; type: cell-based, Nicotiana benthamiana; details: MV 0.35 μM, SOSG 10 μM; MV(+) vs MV(−); n = 8; Figure S22
# [4] = In vitro •OH-scavenging capacity; type: biochemical; details: amino acid 80 μM; Cys, Met and Trp compared, normalized to Cys; Figure S18
compound,measurement,setting,value
"N[C@@H](CS)C(=O)O [Cys, cysteine]",1O2-scavenging capacity of amino acids compared with Trp,[1],more effective scavengers for ^1O2 than Trp
"C[n+]1ccc(-c2cc[n+](C)cc2)cc1 [MV, methyl viologen]",effect on cellular levels of •OH,[2],elevated the cellular levels of •OH
same,effect on cellular levels of 1O2,[3],did not affect those of ^1O2
"CSCC[C@H](N)C(=O)O [Met, methionine]",1O2-scavenging capacity of amino acids compared with Trp,[1],more effective scavengers for ^1O2 than Trp
"N[C@@H](Cc1c[nH]c2ccccc12)C(=O)O [Trp, tryptophan]",•OH-scavenging capacity of amino acids,[4],highest •OH-scavenging capacity

# — PMC11672152 (JACS Au, 2024)
